# “Also recorded” adds a separate entry of the source. Bridge positions count the residues as written; N and C are the ends. Peptide text beside a SMILES is read from it.
# Assays:
# mKv1.3 = molecular target: T1, mKv1.3 (Mus musculus, UniProt P16390); assay: Whole-cell patch-clamp, exogenous Kv1.3 in HEK293T cells; assay type: cell-based
# T1 construct: expressed in transfected cells; host or cells: HEK293T, vector pIRES2-EGFP (bicistronic, EGFP not fused)
# Description: (§1) Mouse spinal columns were removed and placed in ice cold HBSS, then laminectomies were performed and bilateral DRG were dissected out. After removal of connective tissues, DRG were transferred to a 1 ml Ca^2+/Mg^2+-free HBSS containing 2 μl saturated NaHCO3, 0.35 mg L-cysteine and 20 U papain (Worthington, Lakewood, NJ, USA), and incubated at 37 °C for 10 min. The suspension of DRG was centrifuged, the supernatant was removed, 1 ml Ca^2+/Mg^2+-free HBSS containing 4 mg collagenase type II and 1.25 mg dispase type II (Worthington) was added and incubated at 37 °C for 10 min. After digestion, neurons were pelleted, suspended in neurobasal medium containing 2% B-27 supplement, 1% L-glutamine, 100 U/ml penicillin plus 100 μg/ml streptomycin, and 50 ng/ml nerve growth factor, plated on a 12 mm coverslip coated with poly-L-lysine (10 μg/ml) and cultured under a humidified atmosphere of 5% CO2/95% air at 37 °C for 18–24 h before use. Jurkat E6-1 T cells (ATCC TIB152) and HEK293T cells (ATCC ACS4500) were maintained in RPMI medium 1640 (Invitrogen, Carlsbad, CA, USA) and Dulbecco’s modified Eagle’s medium (DMEM) (Life Technologies,GrandIsland, NY, USA), supplemented with 10% fetal bovine serum (Life Technologies), 100 units/ml penicillin, 100 μg/ml streptomycin, respectively. Cells were cultured in a humidified incubator at 37 °C with 5% CO2. […]
# mNav1.5 = assay: Whole-cell patch-clamp, exogenous Nav1.5 in HEK293T cells; assay type: cell-based; conditions: 1 μM, +10 mV 100 ms pulse from -60 mV every 10 s
# Description: as §1
# [1] = molecular target: T2, endogenous Kv1.3 expressed by human Jurkat T cells (Homo sapiens, UniProt P22001); assay: Whole-cell patch-clamp, endogenous Kv1.3 in Jurkat T cells; assay type: cell-based
# T2 construct: endogenous Kv1.3 expressed by human Jurkat T cells; host or cells: Jurkat E6-1 T cells
# Description: Mouse spinal columns were removed and placed in ice cold HBSS, then laminectomies were performed and bilateral DRG were dissected out. After removal of connective tissues, DRG were transferred to a 1 ml Ca^2+/Mg^2+-free HBSS containing 2 μl saturated NaHCO3, 0.35 mg L-cysteine and 20 U papain (Worthington, Lakewood, NJ, USA), and incubated at 37 °C for 10 min. The suspension of DRG was centrifuged, the supernatant was removed, 1 ml Ca^2+/Mg^2+-free HBSS containing 4 mg collagenase type II and 1.25 mg dispase type II (Worthington) was added and incubated at 37 °C for 10 min. After digestion, neurons were pelleted, suspended in neurobasal medium containing 2% B-27 supplement, 1% L-glutamine, 100 U/ml penicillin plus 100 μg/ml streptomycin, and 50 ng/ml nerve growth factor, plated on a 12 mm coverslip coated with poly-L-lysine (10 μg/ml) and cultured under a humidified atmosphere of 5% CO2/95% air at 37 °C for 18–24 h before use. Jurkat E6-1 T cells (ATCC TIB152) and HEK293T cells (ATCC ACS4500) were maintained in RPMI medium 1640 (Invitrogen, Carlsbad, CA, USA) and Dulbecco’s modified Eagle’s medium (DMEM) (Life Technologies,GrandIsland, NY, USA), supplemented with 10% fetal bovine serum (Life Technologies), 100 units/ml penicillin, 100 μg/ml streptomycin, respectively. Cells were cultured in a humidified incubator at 37 °C with 5% CO2. The cDNAs encoding mKv1.1, mKv1.2, mKv1.3, mNav1.4, mNav1.5 and mNav1.7 were subcloned into the XhoI/BamHI sites of a bicistronic vector, pIRES2-EGFP (Clontech, USA), then transiently transfected into HEK293-T cells using Lipofectamine 2000 (Invitrogen) for electrophysiological experiments.
# Whole-cell patch-clamp recordings were performed using an EPC 9 amplifier (HEKA Elektronik, Lambrecht/Pfalz, Germany) at room temperature (22–24 °C). Pipettes pulled from borosilicate glass (BF 150-86-10; Sutter Instrument Company, Novato, CA, USA) had resistances of 2–4 MΩ when filled with the internal solution. The internal pipette solution for recording Kv currents contained: KCl 140 mM, MgCl2 1 mM, EGTA 1 mM, Na2ATP 3 mM, HEPES 10 mM (pH 7.3 with KOH); for recording Na currents contained: CsCl 100 mM, CsF 40 mM, MgCl2 2 mM, HEPES 10 mM, EGTA 10 mM, D-Glucose 10 mM, Na2ATP 3 mM (pH 7.3 with CsOH). The external solution for recording Kv currents contained: KCl 5 mM, NaCl 140 mM, HEPES 10 mM, CaCl2 2 mM, MgCl2 1 mM, D-Glucose 10 mM (pH 7.4 with NaOH); for recording Na currents contained: NaCl 132 mM, KCl 5.4 mM, CaCl2 1.8 mM, MgCl2 0.8 mM, HEPES 10 mM, D-Glucose 5 mM (pH 7.4 with NaOH). Kv currents were elicited by + 50 mV, 400 ms depolarizing pulse from the holding potential of − 60 mV every 20 s, and Na currents were elicited by + 10 mV, 100 ms depolarizing pulse from the holding potential of − 60 mV every 10 s. […]
# [2] = tested on: IL-2 secretion from Jurkat T cells; assay: IL-2 secretion from ConA-activated Jurkat T cells (ELISA); assay type: cell-based, human; conditions: ConA 10 μg/ml; for ConA-induced IL-2 secretion (in words): Ktx-Sp2 10 nM, 100 nM, 1 μM and 10 μM, 24 h, ELISA at 450 nm, n = 6, ***P < 0.0001
# Description: IL-2 secretion from Jurkat T cells was measured using an ELISA kit (eBioscience, San Diego, CA, USA) following manufacturer’s instructions. Cells were centrifuged at 1500 rpm for 10 min, and the supernatants were collected to measure IL-2 concentrations. Reactions were performed in 96-well plates coated with the capture antibody and stopped with phosphoric acid (1 M). Absorbance was measured at 450 nm. Each experiment was repeated at least three times in duplicate.
# The cytokine IL-2 is predominantly secreted from activated T cells and is critical in regulating the balance between immune tolerance and autoimmunity. The secretion of IL-2 is driven by a rise of [Ca^2+]i. Since Ktx-Sp2 potently suppresses Kv1.3 function and decreases Ca^2+ influx in Jurkat T cells we next asked whether Ktx-Sp2 could inhibit IL-2 secretion, which should result in functional immunosuppression. As a classical polyclonal stimulator acting through T-cell receptor complex (TCR)-CD3 complex, ConA has been used to induce T cell activation and stimulate IL-2 secretion, which is dependent on an increase of [Ca^2+]i. We thus used the ConA-stimulated IL-2 secretion in the growth media as readout.
# Fig. 6 Ktx-Sp2 inhibits IL-2 secretion from activated Jurkat T cells. The concentrations of IL-2 in cell growth media were measured by ELISA. Jurkat T cells were activated by ConA (10 μg/ml) for 24 h. Ktx-Sp2 (10 nM, 100 nM, 1 μM and 10 μM) were added simultaneously with ConA. ***P < 0.0001, n = 6
# T2 sequence (P22001 whole entry): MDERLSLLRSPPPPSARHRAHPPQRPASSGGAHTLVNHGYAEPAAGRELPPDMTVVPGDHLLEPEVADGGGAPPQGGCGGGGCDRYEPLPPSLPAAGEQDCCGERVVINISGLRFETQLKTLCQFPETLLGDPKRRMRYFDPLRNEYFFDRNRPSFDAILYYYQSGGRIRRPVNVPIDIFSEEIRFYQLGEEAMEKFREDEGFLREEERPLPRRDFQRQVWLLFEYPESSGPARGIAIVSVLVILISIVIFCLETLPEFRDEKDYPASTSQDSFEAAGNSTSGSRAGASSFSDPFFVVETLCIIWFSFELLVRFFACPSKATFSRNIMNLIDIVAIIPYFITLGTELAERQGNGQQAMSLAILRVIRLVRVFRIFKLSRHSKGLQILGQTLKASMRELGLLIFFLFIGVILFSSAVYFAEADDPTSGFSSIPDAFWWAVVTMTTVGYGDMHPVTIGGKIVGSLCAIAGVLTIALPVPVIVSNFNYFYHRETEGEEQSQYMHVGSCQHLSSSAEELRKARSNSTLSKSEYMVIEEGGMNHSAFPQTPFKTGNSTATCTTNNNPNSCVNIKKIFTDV
# T1 sequence (P16390 whole entry, the tested form may be a part): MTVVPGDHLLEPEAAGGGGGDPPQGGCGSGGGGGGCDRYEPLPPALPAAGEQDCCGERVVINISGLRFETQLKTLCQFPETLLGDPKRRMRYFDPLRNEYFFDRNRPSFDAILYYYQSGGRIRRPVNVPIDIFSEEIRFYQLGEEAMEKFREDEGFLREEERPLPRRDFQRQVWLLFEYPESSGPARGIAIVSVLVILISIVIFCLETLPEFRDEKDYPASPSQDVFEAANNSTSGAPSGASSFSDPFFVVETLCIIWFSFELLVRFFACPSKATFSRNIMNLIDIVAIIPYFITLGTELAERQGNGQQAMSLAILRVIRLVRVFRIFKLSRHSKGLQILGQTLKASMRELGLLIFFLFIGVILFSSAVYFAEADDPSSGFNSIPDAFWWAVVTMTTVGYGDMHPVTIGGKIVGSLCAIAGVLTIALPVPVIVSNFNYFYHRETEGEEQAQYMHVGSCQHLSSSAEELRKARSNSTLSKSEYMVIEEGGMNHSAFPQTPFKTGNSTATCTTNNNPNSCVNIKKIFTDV
smiles,measurement,setting,value
"CSCC[C@@H]1NC(=O)[C@@H]2CSSC[C@H](NC(=O)[C@H](CCCCN)NC(=O)[C@H](C)NC(=O)CNC(=O)[C@H](Cc3c[nH]cn3)NC(=O)[C@H](CC(C)C)NC(=O)[C@@H]3CCCN3C(=O)[C@@H](N)CO)C(=O)N[C@@H](CO)C(=O)N[C@@H](CO)C(=O)N[C@@H](CO)C(=O)N[C@@H](CC(N)=O)C(=O)N[C@@H](CCC(N)=O)C(=O)N[C@H]3CSSC[C@H](NC(=O)[C@H](CCCNC(=N)N)NC(=O)CNC(=O)[C@H](CC(N)=O)NC1=O)C(=O)N[C@@H](CCCNC(=N)N)C(=O)N[C@H](C(=O)N[C@@H](Cc1ccc(O)cc1)C(=O)NCC(=O)O)CSSC[C@H](NC(=O)[C@@H]1CCCN1C(=O)[C@H](CCCNC(=N)N)NC(=O)[C@H]([C@@H](C)O)NC3=O)C(=O)N[C@@H](CCCNC(=N)N)C(=O)N[C@@H](Cc1ccc(O)cc1)C(=O)NCC(=O)NCC(=O)NCC(=O)N[C@@H]([C@@H](C)O)C(=O)N[C@@H](Cc1c[nH]cn1)C(=O)NCC(=O)N[C@@H](CCCCN)C(=O)N2 [Ktx-Sp2] (H-SPLHGAKCSSSNQCTRPCRYGGGTHGKCMNGRCRCYG-OH; disulfide 8-28, 14-33, 18-35 (inferred); N-terminus and C-terminus assumed)",IC50,"mKv1.3; +50 mV 400 ms pulse from -60 mV every 20 s, room temperature (22–24 °C), mean ± SEM, n = 8, read-out: IC50 for mKv1.3-mediated currents",14.7 ± 1.98 nM
same,blocking of Kv1.3 (in words),mKv1.3; exogenous channel,the blocking activity for Kv1.3 was relatively high; also recorded: the blocking activity on Kv1.3 channel is the strongest
same,effect on Nav1.5,mNav1.5,almost had no effect
same,blocking of endogenous Kv1.3 in Jurkat T cells (in words),[1],effectively block endogenous Kv1.3; also recorded: equivalent to the exogenous expression Kv1.3 on the HEK293T cell membrane
same,reduction of Kv1.3 current,"[1]; 30 nM, bath application, n = 5, +50 mV 400 ms pulse from -60 mV, almost zero cytosolic Ca^2+",about 50%
same,IC50,"[1]; +50 mV 400 ms pulse from -60 mV, almost zero cytosolic Ca^2+, currents normalized to control, Hill equation, read-out: IC50 for Kv1.3 current in Jurkat T cells",29.1 ± 1.12 nM
same,reversibility of suppressive effect on Kv1.3 current after washout,"[1]; bath application, washout",partially reversible after washout
same,activation of Jurkat T cells (in words),[2],inhibit the activation of Jurkat T cells
same,activation of Jurkat T cells (in words),[2]; listed as Ktx-sp2,inhibiting the activation effect of ConA on Jurkat T cells
same,ConA-induced IL-2 secretion (in words),[2],reduce the release of inflammatory cytokines IL-2; also recorded: significantly reduced ConA-induced IL-2 secretion in a concentration-dependent manner
same,ConA-induced IL-2 secretion (in words),[2]; listed as Ktx-sp2,significantly reducing the release of inflammatory cytokine IL-2

# Reference: paper PMC6915869, “Immunosuppressive effects of a novel potassium channel toxin Ktx-Sp2 from Scorpiops Pocoki” (Cell & Bioscience, 2019)
